Measured values taken from patent US12065442B2, “Tropomyosin receptor kinase (TRK) degradation compounds and methods of use” (Cullgen (Shanghai), Inc., priority 2018, dated 2024).

Test system: KM12 cells
Assay: Cell viability assay (CellTiter-Glo) in KM12 cells
Type: cell-based
Conditions: Homo sapiens, 72 h; Table 3; KM12 cell viability, CellTiter-Glo, 3 days; read-out: IC50

SMILES | IC50
O=C(CN1CCN(c2ccc(C(=O)Nc3n[nH]c4ccc(Cc5cc(F)cc(F)c5)cc34)c(NC3CCOCC3)c2)CC1)NCCNc1ccc2c(c1)C(=O)N(C1CCC(=O)NC1=O)C2=O (stereo not shown) [TR-165, N-(5-(3,5-Difluorobenzyl)-1H-indazol-3-yl)-4-(4-(2-((2-((2-(2,6-dioxopiperidin-3-yl)-1,3-dioxoisoindolin-5-yl)amino)ethyl)amino)-2-oxoethyl)piperazin-1-yl)-2-((tetrahydro-2H-pyran-4-yl)amino)benzamide] | 3.5 nM
O=C(CN1CCN(c2ccc(C(=O)Nc3n[nH]c4ccc(Cc5cc(F)cc(F)c5)cc34)c(NC3CCOCC3)c2)CC1)NCCOCCOCCOCCOCCOCCNc1ccc2c(c1)C(=O)N(C1CCC(=O)NC1=O)C2=O (stereo not shown) [TR-166, N-(5-(3,5-Difluorobenzyl)-1H-indazol-3-yl)-4-(4-(20-((2-(2,6-dioxopiperidin-3-yl)-1,3-dioxoisoindolin-5-yl)amino)-2-oxo-6,9,12,15,18-pentaoxa-3-azaicosyl)piperazin-1-yl)-2-((tetrahydro-2H-pyran-4-yl)amino)benzamide] | 4.4 nM
O=C(CN1CCN(c2ccc(C(=O)Nc3n[nH]c4ccc(Cc5cc(F)cc(F)c5)cc34)c(NC3CCOCC3)c2)CC1)NCCCNc1ccc2c(c1)C(=O)N(C1CCC(=O)NC1=O)C2=O (stereo not shown) [TR-167, N-(5-(3,5-Difluorobenzyl)-1H-indazol-3-yl)-4-(4-(2-((3-((2-(2,6-dioxopiperidin-3-yl)-1,3-dioxoisoindolin-5-yl)amino)propyl)amino)-2-oxoethyl)piperazin-1-yl)-2-((tetrahydro-2H-pyran-4-yl)amino)benzamide] | 3.3 nM
O=C1CCC(N2C(=O)c3ccc(NCCCC(=O)N4CCN(c5cccc(-c6cnc7ccc(N8CCC[C@@H]8c8cccc(F)c8)nn67)n5)CC4)cc3C2=O)C(=O)N1 (stereo partly drawn) [TR-168, 2-(2,6-Dioxopiperidin-3-yl)-5-((4-(4-(6-(6-((R)-2-(3-fluorophenyl)pyrrolidin-1-yl)imidazo[1,2-b]pyridazin-3-yl)pyridin-2-yl)piperazin-1-yl)-4-oxobutyl)amino)isoindoline-1,3-dione] | 2.9 nM
O=C1CCC(N2C(=O)c3ccc(NCCCC(=O)N4CCN(c5ccc(C(=O)Nc6n[nH]c7ccc(Cc8cc(F)cc(F)c8)cc67)c(NC6CCOCC6)c5)CC4)cc3C2=O)C(=O)N1 (stereo not shown) [TR-169, N-(5-(3,5-Difluorobenzyl)-1H-indazol-3-yl)-4-(4-(4-((2-(2,6-dioxopiperidin-3-yl)-1,3-dioxoisoindolin-5-yl)amino)butanoyl)piperazin-1-yl)-2-((tetrahydro-2H-pyran-4-yl)amino)benzamide] | 1.6 nM
O=C1CCC(N2C(=O)c3ccc(N4CCN(c5cccc(-c6cnc7ccc(N8CCC[C@@H]8c8cccc(F)c8)nn67)n5)CC4)cc3C2=O)C(=O)N1 (stereo partly drawn) [TR-170, 2-(2,6-Dioxopiperidin-3-yl)-5-(4-(6-(6-((R)-2-(3-fluorophenyl)pyrrolidin-1-yl)imidazo[1,2-b]pyridazin-3-yl)pyridin-2-yl)piperazin-1-yl)isoindoline-1,3-dione] | 15.1 nM
O=C1CCC(N2C(=O)c3ccc(NC4CCN(c5cccc(-c6cnc7ccc(N8CCC[C@@H]8c8cccc(F)c8)nn67)n5)CC4)cc3C2=O)C(=O)N1 (stereo partly drawn) [TR-174, 2-(2,6-dioxopiperidin-3-yl)-5-((1-(6-(6-((R)-2-(3-fluorophenyl)pyrrolidin-1-yl)imidazo[1,2-b]pyridazin-3-yl)pyridin-2-yl)piperidin-4-yl)amino)isoindoline-1,3-dione] | 18.7 nM
O=C1CCC(N2C(=O)c3ccc(NC4CN(c5cccc(-c6cnc7ccc(N8CCC[C@@H]8c8cccc(F)c8)nn67)n5)C4)cc3C2=O)C(=O)N1 (stereo partly drawn) [TR-175, 2-(2,6-Dioxopiperidin-3-yl)-5-((1-(6-(6-((R)-2-(3-fluorophenyl)pyrrolidin-1-yl)imidazo[1,2-b]pyridazin-3-yl)pyridin-2-yl)azetidin-3-yl)amino)isoindoline-1,3-dione] | 40.8 nM
O=C1CCC(N2C(=O)c3ccc(NCCOCCN4CCN(c5cccc(-c6cnc7ccc(N8CCC[C@@H]8c8cccc(F)c8)nn67)n5)CC4)cc3C2=O)C(=O)N1 (stereo partly drawn) [TR-176, 2-(2,6-Dioxopiperidin-3-yl)-5-((2-(2-(4-(6-(6-((R)-2-(3-fluorophenyl)pyrrolidin-1-yl)imidazo[1,2-b]pyridazin-3-yl)pyridin-2-yl)piperazin-1-yl)ethoxy)ethyl)amino)isoindoline-1,3-dione] | 18 nM
O=C1CCC(N2C(=O)c3ccc(NCC4CCN(c5cccc(-c6cnc7ccc(N8CCC[C@@H]8c8cccc(F)c8)nn67)n5)CC4)cc3C2=O)C(=O)N1 (stereo partly drawn) [TR-178, 2-(2,6-Dioxopiperidin-3-yl)-5-(((1-(6-(6-((R)-2-(3-fluorophenyl)pyrrolidin-1-yl)imidazo[1,2-b]pyridazin-3-yl)pyridin-2-yl)piperidin-4-yl)methyl)amino)isoindoline-1,3-dione] | 67.7 nM
O=C1CCC(N2C(=O)c3ccc(NCC4CN(c5cccc(-c6cnc7ccc(N8CCC[C@@H]8c8cccc(F)c8)nn67)n5)C4)cc3C2=O)C(=O)N1 (stereo partly drawn) [TR-179, 2-(2,6-Dioxopiperidin-3-yl)-5-(((1-(6-(6-((R)-2-(3-fluorophenyl)pyrrolidin-1-yl)imidazo[1,2-b]pyridazin-3-yl)pyridin-2-yl)azetidin-3-yl)methyl)amino)isoindoline-1,3-dione] | 23.4 nM
O=C1CCC(N2C(=O)c3ccc(NCCC4CCN(c5cccc(-c6cnc7ccc(N8CCC[C@@H]8c8cccc(F)c8)nn67)n5)CC4)cc3C2=O)C(=O)N1 (stereo partly drawn) [TR-180, 2-(2,6-Dioxopiperidin-3-yl)-5-((2-(1-(6-(6-((R)-2-(3-fluorophenyl)pyrrolidin-1-yl)imidazo[1,2-b]pyridazin-3-yl)pyridin-2-yl)piperidin-4-yl)ethyl)amino)isoindoline-1,3-dione] | 33.8 nM
O=C1CCC(N2C(=O)c3ccc(N4CCC(N5CCN(c6cccc(-c7cnc8ccc(N9CCC[C@@H]9c9cccc(F)c9)nn78)n6)CC5)CC4)cc3C2=O)C(=O)N1 (stereo partly drawn) [TR-182, 2-(2,6-Dioxopiperidin-3-yl)-5-(4-(4-(6-(6-((R)-2-(3-fluorophenyl)pyrrolidin-1-yl)imidazo[1,2-b]pyridazin-3-yl)pyridin-2-yl)piperazin-1-yl)piperidin-1-yl)isoindoline-1,3-dione] | 16 nM
O=C1CCC(N2C(=O)c3ccc(C#CCN4CCN(c5cccc(-c6cnc7ccc(N8CCC[C@@H]8c8cccc(F)c8)nn67)n5)CC4)cc3C2=O)C(=O)N1 (stereo partly drawn) [TR-183, 2-(2,6-Dioxopiperidin-3-yl)-5-(3-(4-(6-(6-((R)-2-(3-fluorophenyl)pyrrolidin-1-yl)imidazo[1,2-b]pyridazin-3-yl)pyridin-2-yl)piperazin-1-yl)prop-1-yn-1-yl)isoindoline-1,3-dione] | 129 nM
O=C1CCC(N2C(=O)c3ccc(N4CC(N5CCN(c6cccc(-c7cnc8ccc(N9CCC[C@@H]9c9cccc(F)c9)nn78)n6)CC5)C4)cc3C2=O)C(=O)N1 (stereo partly drawn) [TR-184, 2-(2,6-dioxopiperidin-3-yl)-5-(3-(4-(6-(6-((R)-2-(3-fluorophenyl)pyrrolidin-1-yl)imidazo[1,2-b]pyridazin-3-yl)pyridin-2-yl)piperazin-1-yl)azetidin-1-yl)isoindoline-1,3-dione] | 9.3 nM
O=C1CCC(N2Cc3ccc(CCCN4CCN(c5cccc(-c6cnc7ccc(N8CCC[C@@H]8c8cccc(F)c8)nn67)n5)CC4)cc3C2=O)C(=O)N1 (stereo partly drawn) [TR-185, 3-(6-(3-(4-(6-(6-((R)-2-(3-fluorophenyl)pyrrolidin-1-yl)imidazo[1,2-b]pyridazin-3-yl)pyridin-2-yl)piperazin-1-yl)propyl)-1-oxoisoindolin-2-yl)piperidine-2,6-dione] | 17.1 nM
O=C1CCC(N2Cc3cc(CCCN4CCN(c5cccc(-c6cnc7ccc(N8CCC[C@@H]8c8cccc(F)c8)nn67)n5)CC4)ccc3C2=O)C(=O)N1 (stereo partly drawn) [TR-186, 3-(5-(3-(4-(6-(6-((R)-2-(3-fluorophenyl)pyrrolidin-1-yl)imidazo[1,2-b]pyridazin-3-yl)pyridin-2-yl)piperazin-1-yl)propyl)-1-oxoisoindolin-2-yl)piperidine-2,6-dione] | 5.8 nM
O=C1CCC(N2Cc3ccc(C#CCN4CCN(c5cccc(-c6cnc7ccc(N8CCC[C@@H]8c8cccc(F)c8)nn67)n5)CC4)cc3C2=O)C(=O)N1 (stereo partly drawn) [TR-187, 3-(6-(3-(4-(6-(6-((R)-2-(3-fluorophenyl)pyrrolidin-1-yl)imidazo[1,2-b]pyridazin-3-yl)pyridin-2-yl)piperazin-1-yl)prop-1-yn-1-yl)-1-oxoisoindolin-2-yl)piperidine-2,6-dione] | 18.6 nM
O=C1CCC(N2Cc3cc(C#CCN4CCN(c5cccc(-c6cnc7ccc(N8CCC[C@@H]8c8cccc(F)c8)nn67)n5)CC4)ccc3C2=O)C(=O)N1 (stereo partly drawn) [TR-188, 3-(5-(3-(4-(6-(6-((R)-2-(3-Fluorophenyl)pyrrolidin-1-yl)imidazo[1,2-b]pyridazin-3-yl)pyridin-2-yl)piperazin-1-yl)prop-1-yn-1-yl)-1-oxoisoindolin-2-yl)piperidine-2,6-dione] | 16.8 nM
O=C1CCC(N2Cc3ccc(NCC(=O)N4CCN(c5cccc(-c6cnc7ccc(N8CCC[C@@H]8c8cccc(F)c8)nn67)n5)CC4)cc3C2=O)C(=O)N1 (stereo partly drawn) [TR-189, 3-(6-((2-(4-(6-(6-((R)-2-(3-fluorophenyl)pyrrolidin-1-yl)imidazo[1,2-b]pyridazin-3-yl)pyridin-2-yl)piperazin-1-yl)-2-oxoethyl)amino)-1-oxoisoindolin-2-yl)piperidine-2,6-dione] | 2.5 nM
O=C1CCC(N2Cc3cc(NCC(=O)N4CCN(c5cccc(-c6cnc7ccc(N8CCC[C@@H]8c8cccc(F)c8)nn67)n5)CC4)ccc3C2=O)C(=O)N1 (stereo partly drawn) [TR-190, 3-(5-((2-(4-(6-(6-((R)-2-(3-fluorophenyl)pyrrolidin-1-yl)imidazo[1,2-b]pyridazin-3-yl)pyridin-2-yl)piperazin-1-yl)-2-oxoethyl)amino)-1-oxoisoindolin-2-yl)piperidine-2,6-dione] | 3.6 nM
O=C1CCC(N2Cc3cc(NCCN4CCN(c5cccc(-c6cnc7ccc(N8CCC[C@@H]8c8cccc(F)c8)nn67)n5)CC4)ccc3C2=O)C(=O)N1 (stereo partly drawn) [TR-191, 3-(5-((2-(4-(6-(6-((R)-2-(3-fluorophenyl)pyrrolidin-1-yl)imidazo[1,2-b]pyridazin-3-yl)pyridin-2-yl)piperazin-1-yl)ethyl)amino)-1-oxoisoindolin-2-yl)piperidine-2,6-dione] | 5.4 nM
